Experimental data published in publication PMC3573960 (Molecular Neurodegeneration, 2012).
Like-named read-outs stand apart in the source and are kept apart here. Marks after values point to notes of the source that are not given here.

How the values were obtained:
[1] = test system: Aph1AL containing γ-secretase complexes; experiment: Cell-free γ-secretase assay, Aβ1-40 and Aβ1-42 by AlphaLisa; format: biochemical, murine
From the text: DAPT was used as a reference positive control for the assay. For each assay condition, a 5-μL microsomal fraction, containing 1% CHAPSO (3-[(3-cholamidopropyl)dimethylammonio]-2-hydroxy-1-propanesulfonate) from murine embryonic fibroblasts (MEF) lacking the Aph-1A, Aph-1B, and Aph-1C genes [60] […] The other half of the reaction mixture was used to analyze the levels of Aβ1-40 and Aβ1-42 by AlphaLisa (Perkin Elmer, Waltham, MA).

[2] = test system: Tg2576 mice; conditions: mean (sem)
From the text: Male Tg2576 and WT mice were both derived from crosses of male Tg2576 mice and female B6SJLF1 mice (Taconic) and were singly housed upon arrival. […] Some animals were euthanized as described above. For histological studies, a subset of mice were euthanized by CO2 asphyxiation and transcardially perfused with cold 0.9% NaCl. […] The left cerebral hemisphere was cut into 2 pieces, weighed, and frozen.
The right hemispheres were sectioned at 20 μm in the sagittal plane. From 12 levels, 7 sections were retained and processed. Aβ plaque load was quantified in sections doubly stained by immunohistochemistry with 6E10 antibody (N-terminal human Aβ, aa 1–16) and by ThioflavinS. Astrocytes were immunostained using a primary rabbit polyclonal antibody against GFAP (Dako, Glostrup, Denmark) and a fluorescently labelled secondary Cy2 antibody (Jackson ImmunoResearch Laboratories, West Grove, PA). Activated microglia were immunostained using a rat anti-murine CD11b primary antibody (AbD Serotec, Kidlington, UK) and a fluorescently labelled secondary Cy3 antibody (Jackson ImmunoResearch Laboratories). Astrocytes and microglia were labelled in a double incubation and sections were counterstained with DAPI to visualize cell nuclei.
Hippocampus and neocortex were measured separately, and the percent area of immunoreactivity or ThioflavinS staining per brain region was evaluated using automated image analysis software (Image Pro Plus, v. 6.2, Media Cybernetics, Bethesda, MD). Numbers and sizes of Aβ deposits were also counted automatically. Measurements from 5 sections per mouse were averaged and the individual mouse average was used to calculate the group means.

[3] = target: T1, COX-1 (Homo sapiens, UniProt P23219); experiment: COX-1 enzyme assay (Cerep); format: biochemical; conditions: human recombinant, arachidonic acid 4 μM
T1 construct: purchased Cerep (Redmond, WA) 0726; host or cells: Sf9
Protocol: COX-1 and COX-2 enzyme assays were performed by Cerep (Redmond, WA, Catalog # 0726 and 0727). Briefly, the assays used human recombinant Sf9 cells and arachidonic acid (4 μM for COX-1 and 2 μM for COX-2) as the substrate. Production of PGE2 was detected by enzyme immunoassay.

[4] = Measured LogD; format: physicochemical

T1 sequence (P23219 24-599): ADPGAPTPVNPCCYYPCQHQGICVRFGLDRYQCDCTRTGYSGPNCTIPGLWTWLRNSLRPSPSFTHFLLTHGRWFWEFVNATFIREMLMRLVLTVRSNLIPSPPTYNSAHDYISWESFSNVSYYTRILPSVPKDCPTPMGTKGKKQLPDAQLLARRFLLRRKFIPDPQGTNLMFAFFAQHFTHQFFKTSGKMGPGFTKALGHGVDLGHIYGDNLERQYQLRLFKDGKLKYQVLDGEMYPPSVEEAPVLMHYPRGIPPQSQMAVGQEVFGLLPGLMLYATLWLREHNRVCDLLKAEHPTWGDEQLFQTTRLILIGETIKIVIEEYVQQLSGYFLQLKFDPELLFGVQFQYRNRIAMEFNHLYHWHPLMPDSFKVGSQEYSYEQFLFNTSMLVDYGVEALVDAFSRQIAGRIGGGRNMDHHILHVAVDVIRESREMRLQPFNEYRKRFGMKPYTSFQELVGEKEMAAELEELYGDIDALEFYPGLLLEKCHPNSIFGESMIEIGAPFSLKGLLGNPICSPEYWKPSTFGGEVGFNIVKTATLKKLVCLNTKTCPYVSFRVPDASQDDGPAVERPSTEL

## O=C(O)[C@H](CC1CCC1)c1cc(Cl)c(OCC(F)(F)F)c(-c2ccc(C(F)(F)F)cc2)c1 [EVP-0015962, (R)-2-(5-chloro-6-(2,2,2-trifluoroethoxy)-4’-(trifluoromethyl)biphenyl-3-yl)-3-cyclobutylpropanoic acid]
[1]
  levels of Aβ40 in the cell-free assay: without affecting
[2]; hippocampus, 20 mg/kg/day
  6E10 Aβ plaque Number/mm^2: 61.0 (12.2)* percent of control
  6E10 Aβ plaque Size (μm^2): 99.4 (15.7) percent of control
  6E10 Aβ plaque percent area: 62.1 (13.2)* percent of control
  ThioflavinS Aβ plaque Number/mm^2: 55.2 (15.6)* percent of control
  ThioflavinS Aβ plaque Size (μm^2): 56.5 (16.3) percent of control
  ThioflavinS Aβ plaque percent area: 40.7 (16.9)** percent of control
[2]; hippocampus, 60 mg/kg/day
  6E10 Aβ plaque Number/mm^2: 53.9 (16.8)* percent of control
  6E10 Aβ plaque Size (μm^2): 104.1 (11.6) percent of control
  6E10 Aβ plaque percent area: 53.1 (15.2)* percent of control
  ThioflavinS Aβ plaque Number/mm^2: 50.7 (12.8)* percent of control
  ThioflavinS Aβ plaque Size (μm^2): 58.9 (27.0) percent of control
  ThioflavinS Aβ plaque percent area: 27.3 (6.5)** percent of control
[2]; neocortex, 20 mg/kg/day
  6E10 Aβ plaque Number/mm^2: 65.2 (8.8) percent of control
  6E10 Aβ plaque Size (μm^2): 105.5 (8.8) percent of control
  6E10 Aβ plaque percent area: 69.2 (9.7) percent of control
  ThioflavinS Aβ plaque Number/mm^2: 64.3 (8.0) percent of control
  ThioflavinS Aβ plaque Size (μm^2): 87.8 (12.2) percent of control
  ThioflavinS Aβ plaque percent area: 64.3 (14.3) percent of control
[2]; neocortex, 60 mg/kg/day
  6E10 Aβ plaque Number/mm^2: 71.3 (15.0) percent of control
  6E10 Aβ plaque Size (μm^2): 88.5 (5.4) percent of control
  6E10 Aβ plaque percent area: 65.3 (16.3) percent of control
  ThioflavinS Aβ plaque Number/mm^2: 59.6 (14.1) percent of control
  ThioflavinS Aβ plaque Size (μm^2): 58.1 (10.6)* percent of control
  ThioflavinS Aβ plaque percent area: 29.9 (7.3)* percent of control
[3]
  IC50: > 10 µM
[4]
  logD: 3.88
